Assay results: the supplement of paper PMC11424490

What was measured:
[1] = system: NCI-H2122; test: combination cScore with sotorasib (Bliss gap around IC50) (%PoC); higher = stronger additive effect
Method: (§1)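 Combination screen of 179 inhibitors with the KRAS G12C inhibitor sotorasib (AMG510) in dose matrices, CellTiter-Glo readout in NCI-H2122 (72 h), SW837 (144 h) and NCI-H358 cells. The cScore is the mean Bliss-independence gap (expected minus observed viability, in %PoC) over a 3x3 field around the IC50s of both drugs. Positive means additive, and >~10 is stated as clear additive.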

[2] = system: SW837; test: as above
Method: as §1

SMILES | combination cScore with sotorasib [1] | combination cScore with sotorasib [2]
CC1(C)CCC(CN2CCN(c3ccc(C(=O)NS(=O)(=O)c4ccc(NCC5CCOCC5)c([N+](=O)[O-])c4)c(Oc4cnc5[nH]ccc5c4)c3)CC2)=C(c2ccc(Cl)cc2)C1 [ABT-199] + C=CC(=O)N1CCN(c2nc(=O)n(-c3c(C)ccnc3C(C)C)c3nc(-c4c(O)cccc4F)c(F)cc23)[C@@H](C)C1 [sotorasib] | 11.2 | -2.18
CO[C@H]1/C=C/C[C@H](C)[C@@H](C)S(=O)(=O)NC(=O)c2ccc3c(c2)N(C[C@@H]2CC[C@H]21)C[C@@]1(CCCc2cc(Cl)ccc21)CO3 [AMG176] + C=CC(=O)N1CCN(c2nc(=O)n(-c3c(C)ccnc3C(C)C)c3nc(-c4c(O)cccc4F)c(F)cc23)[C@@H](C)C1 [sotorasib] | 17.3 | 2.13
COc1cc(OC2CCN(C)CC2)ccc1Nc1ncc2c(n1)n(C1CCCC1)c(=O)n2C [AZ3146] + C=CC(=O)N1CCN(c2nc(=O)n(-c3c(C)ccnc3C(C)C)c3nc(-c4c(O)cccc4F)c(F)cc23)[C@@H](C)C1 [sotorasib] | 4.43 | 19.4
Cc1cc(Nc2nc(N[C@@H](C)c3ncc(F)cn3)ncc2Cl)[nH]n1 [AZD-1480] + C=CC(=O)N1CCN(c2nc(=O)n(-c3c(C)ccnc3C(C)C)c3nc(-c4c(O)cccc4F)c(F)cc23)[C@@H](C)C1 [sotorasib] | 5.41 | -5.71
NC(=O)Nc1cc(-c2cccc(F)c2)sc1C(=O)N[C@H]1CCCNC1 [AZD-7762] + C=CC(=O)N1CCN(c2nc(=O)n(-c3c(C)ccnc3C(C)C)c3nc(-c4c(O)cccc4F)c(F)cc23)[C@@H](C)C1 [sotorasib] | 2.45 | 6.36
COc1cc2cc(c1Cl)N(C)C(=O)C[C@H](OC(=O)C(C)C)[C@]1(C)O[C@@H]1[C@H](C)[C@@H]1C[C@@](O)(NC(=O)O1)[C@H](OC)/C=C/C=C(\C)C2 [Ansamitocin P3] + C=CC(=O)N1CCN(c2nc(=O)n(-c3c(C)ccnc3C(C)C)c3nc(-c4c(O)cccc4F)c(F)cc23)[C@@H](C)C1 [sotorasib] | 5.88 | -0.32
Cc1ncc([N+](=O)[O-])n1CCOC(=O)NC(Nc1ncccn1)C(Cl)(Cl)Cl (configuration not stated) [Apcin] + C=CC(=O)N1CCN(c2nc(=O)n(-c3c(C)ccnc3C(C)C)c3nc(-c4c(O)cccc4F)c(F)cc23)[C@@H](C)C1 [sotorasib] | -0.45 | 4.14
Nc1ncn([C@@H]2O[C@H](CO)[C@@H](O)[C@H]2O)c(=O)n1 [Azacitidine] + C=CC(=O)N1CCN(c2nc(=O)n(-c3c(C)ccnc3C(C)C)c3nc(-c4c(O)cccc4F)c(F)cc23)[C@@H](C)C1 [sotorasib] | 3.93 | 18.6
CCN1CCN(c2ccc(Nc3cc(N(C)C(=O)Nc4c(Cl)c(OC)cc(OC)c4Cl)ncn3)cc2)CC1 [BGJ398] + C=CC(=O)N1CCN(c2nc(=O)n(-c3c(C)ccnc3C(C)C)c3nc(-c4c(O)cccc4F)c(F)cc23)[C@@H](C)C1 [sotorasib] | 2.52 | 12.1
O=C(Cc1ccccc1)Nc1nnc(CCSCCc2nnc(NC(=O)Cc3ccccc3)s2)s1 [BPTES] + C=CC(=O)N1CCN(c2nc(=O)n(-c3c(C)ccnc3C(C)C)c3nc(-c4c(O)cccc4F)c(F)cc23)[C@@H](C)C1 [sotorasib] | 4.36 | -3.09
Nc1nc(Nc2ccc3c(c2)CC[C@@H](N2CCCC2)CC3)nn1-c1cc2c(nn1)-c1ccccc1CCC2 [Bemcentinib] + C=CC(=O)N1CCN(c2nc(=O)n(-c3c(C)ccnc3C(C)C)c3nc(-c4c(O)cccc4F)c(F)cc23)[C@@H](C)C1 [sotorasib] | -5 | 4.27
C=C(c1ccc(C(=O)O)cc1)c1cc2c(cc1C)C(C)(C)CCC2(C)C [Bexarotene] + C=CC(=O)N1CCN(c2nc(=O)n(-c3c(C)ccnc3C(C)C)c3nc(-c4c(O)cccc4F)c(F)cc23)[C@@H](C)C1 [sotorasib] | 14.2 | -2.93
CC(O)(CS(=O)(=O)c1ccc(F)cc1)C(=O)Nc1ccc(C#N)c(C(F)(F)F)c1 (configuration not stated) [Bicalutamide] + C=CC(=O)N1CCN(c2nc(=O)n(-c3c(C)ccnc3C(C)C)c3nc(-c4c(O)cccc4F)c(F)cc23)[C@@H](C)C1 [sotorasib] | 3.68 | -1.56
CO[C@H]1CC[C@H](n2c([C@@H]3CCCC(=O)N3c3ccc(F)c(F)c3)nc3cc(-c4c(C)noc4C)ccc32)CC1 [CCS1477] + C=CC(=O)N1CCN(c2nc(=O)n(-c3c(C)ccnc3C(C)C)c3nc(-c4c(O)cccc4F)c(F)cc23)[C@@H](C)C1 [sotorasib] | 13.8 | 11.8
O=C(O)CCCCC(CCSCc1ccccc1)SCc1ccccc1 (configuration not stated) [CPI-613] + C=CC(=O)N1CCN(c2nc(=O)n(-c3c(C)ccnc3C(C)C)c3nc(-c4c(O)cccc4F)c(F)cc23)[C@@H](C)C1 [sotorasib] | 19 | -5.35
CCCCCOC(=O)Nc1nc(=O)n([C@@H]2O[C@H](C)[C@@H](O)[C@H]2O)cc1F [Capecitabin] + C=CC(=O)N1CCN(c2nc(=O)n(-c3c(C)ccnc3C(C)C)c3nc(-c4c(O)cccc4F)c(F)cc23)[C@@H](C)C1 [sotorasib] | 4.4 | 1.19
C[C@H](CS)C(=O)N1CCC[C@H]1C(=O)O [Captopril] + C=CC(=O)N1CCN(c2nc(=O)n(-c3c(C)ccnc3C(C)C)c3nc(-c4c(O)cccc4F)c(F)cc23)[C@@H](C)C1 [sotorasib] | 1.43 | -0.1
O=C(O)C1(C(=O)O)CCC1.[NH2-].[NH2-].[Pt+2] [Carboplatin] + C=CC(=O)N1CCN(c2nc(=O)n(-c3c(C)ccnc3C(C)C)c3nc(-c4c(O)cccc4F)c(F)cc23)[C@@H](C)C1 [sotorasib] | 11.6 | -4.17
COc1cc2c(Oc3ccc4[nH]c(C)cc4c3F)ncnc2cc1OCCCN1CCCC1 [Cediranib] + C=CC(=O)N1CCN(c2nc(=O)n(-c3c(C)ccnc3C(C)C)c3nc(-c4c(O)cccc4F)c(F)cc23)[C@@H](C)C1 [sotorasib] | 0.01 | 1.55
N.N.[Cl][Pt][Cl] [Cisplatin] + C=CC(=O)N1CCN(c2nc(=O)n(-c3c(C)ccnc3C(C)C)c3nc(-c4c(O)cccc4F)c(F)cc23)[C@@H](C)C1 [sotorasib] | 4.22 | -10.2
Nc1nc(Cl)nc2c1ncn2[C@@H]1O[C@H](CO)[C@@H](O)[C@@H]1F [Clofarabine] + C=CC(=O)N1CCN(c2nc(=O)n(-c3c(C)ccnc3C(C)C)c3nc(-c4c(O)cccc4F)c(F)cc23)[C@@H](C)C1 [sotorasib] | 1 | 3.33
O=C(c1ccc(F)c(F)c1Nc1ccc(I)cc1F)N1CC(O)([C@@H]2CCCCN2)C1 [Cobimetinib] + C=CC(=O)N1CCN(c2nc(=O)n(-c3c(C)ccnc3C(C)C)c3nc(-c4c(O)cccc4F)c(F)cc23)[C@@H](C)C1 [sotorasib] | 5.25 | 11.3
Nc1ccn([C@@H]2O[C@H](CO)[C@@H](O)[C@@H]2O)c(=O)n1 [Cytarabin] + C=CC(=O)N1CCN(c2nc(=O)n(-c3c(C)ccnc3C(C)C)c3nc(-c4c(O)cccc4F)c(F)cc23)[C@@H](C)C1 [sotorasib] | 5.6 | 8.17
CC(C)(C)c1nc(-c2cccc(NS(=O)(=O)c3c(F)cccc3F)c2F)c(-c2ccnc(N)n2)s1 [Dabrafenib] + C=CC(=O)N1CCN(c2nc(=O)n(-c3c(C)ccnc3C(C)C)c3nc(-c4c(O)cccc4F)c(F)cc23)[C@@H](C)C1 [sotorasib] | 13.3 | -2.81
Nc1ncn([C@H]2C[C@H](O)[C@@H](CO)O2)c(=O)n1 [Decitabine] + C=CC(=O)N1CCN(c2nc(=O)n(-c3c(C)ccnc3C(C)C)c3nc(-c4c(O)cccc4F)c(F)cc23)[C@@H](C)C1 [sotorasib] | 1 | 0.84
C[C@@H]1C[C@H]2[C@@H]3CCC4=CC(=O)C=C[C@]4(C)[C@@]3(F)[C@@H](O)C[C@]2(C)[C@@]1(O)C(=O)CO [Dexamethasone] + C=CC(=O)N1CCN(c2nc(=O)n(-c3c(C)ccnc3C(C)C)c3nc(-c4c(O)cccc4F)c(F)cc23)[C@@H](C)C1 [sotorasib] | -0.78 | -13.1
